Reference: publication PMC9945734 (BMC Medicine, 2023)
“And” between values parts separate entries of the source, which are not always exact repeats. Equal values may be shown once.

Test system: PC-3-KQ and PC-3-KR cells
Experiment: RNA-sequencing and differential gene expression
Type: cell-based, human
Design: CEP19 tpm_KQ_NTZ / CCNA1 tpm_KQ_NTZ / BTN3A3 tpm_KQ_NTZ / CAPSL tpm_KQ_NTZ / CELF3 tpm_KQ_NTZ / C5orf63 tpm_KQ_NTZ / tpm MSMP / tpm MYH7B / tpm CACNG8 / CNTNAP3B tpm_KQ_NTZ / IL21R tpm_KQ_NTZ / CYP8B1 tpm_KQ_NTZ / C2orf78 tpm_KQ_NTZ / CALB1 tpm_KQ_NTZ / COL4A3 tpm_KQ_NTZ / CFB tpm_KQ_NTZ / PFKFB1 tpm_KQ_NTZ / BTBD11 tpm_KQ_NTZ: scale not given here
[1] = PC-3-KQ cells with NTZ, RNA-Seq, replicates 1-3, listed as NTZ
[2] = PC-3-KQ cells with NTZ, RNA-Seq, replicates NTZ1-3, listed as NTZ

## CC(=O)Oc1ccccc1C(=O)Nc1ncc([N+](=O)[O-])s1 [Nitazoxanide]
5 μM, 48 h
  reversed genes that were downregulated by KLF5^K369Q: 114 genes
  reversed genes that were upregulated by KLF5^K369Q: 127 genes
5 μM, 48 h, of 2836 differentially expressed genes
  differentially expressed genes whose KLF5^K369Q-modulated expression patterns were reversed: 241 genes
[1]
  BTBD11 tpm_KQ_NTZ: 0.02343 (2×) and -0.3135
  BTN3A3 tpm_KQ_NTZ: 0.1048 and 0.06849 and 0.4183
  C2orf78 tpm_KQ_NTZ: -0.1653 (2×) and -0.2557
  C5orf63 tpm_KQ_NTZ: -1.246 and -0.6828 (2×)
  CALB1 tpm_KQ_NTZ: -0.5505 and -0.5318 and -0.6014
  CAPSL tpm_KQ_NTZ: 0.1399 and 0.07957 and 0.02817
  CCNA1 tpm_KQ_NTZ: 0.2896 and 0.0474 and -0.0329
  CELF3 tpm_KQ_NTZ: -0.6626 and -0.09641 and -1.398
  CEP19 tpm_KQ_NTZ: -0.2178 and -0.1674 and -0.2603
  CFB tpm_KQ_NTZ: 1.072 and 0.8732 and 1.006
  CNTNAP3B tpm_KQ_NTZ: -1.003 and -0.7486 and -1.333
  COL4A3 tpm_KQ_NTZ: 0.8606 and -0.008515 and 0.09381
  CSF1R tpm_KQ_NTZ: -0.4278 and 0.5782 and -0.287
  CSF3 tpm_KQ_NTZ: -0.1666 and -0.05545 and -0.03443
  CYP8B1 tpm_KQ_NTZ: 0.5351 and -0.06455 and 0.239
  CYSTM1 tpm_KQ_NTZ: 0.5286 and 0.6762 and 0.7083
  DEPTOR tpm_KQ_NTZ: -0.1625 and 0.109 and -0.5598
  DISP1 tpm_KQ_NTZ: 0.9822 and -0.1345 and 0.01324
  DMC1 tpm_KQ_NTZ: 0.2859 and -0.2731 and -0.5992
  EFCAB6 tpm_KQ_NTZ: -0.1794 and -0.1071 (2×)
  ESPN tpm_KQ_NTZ: 0.1813 and 0.02389 and 0.09131
  FA2H tpm_KQ_NTZ: 0.4488 and 0.5616 and 0.5267
  FAM43A tpm_KQ_NTZ: 0.03072 and -0.121 and -0.09259
  FAM83D tpm_KQ_NTZ: -0.5519 and -0.6015 and -0.7989
  FAM178B tpm_KQ_NTZ: 0.08123 and 0.3901 and 0.3146
  FANCI tpm_KQ_NTZ: -0.4967 and -0.5797 and -1.118
  FANCL tpm_KQ_NTZ: -0.04507 and -0.1672 and -0.6878
  FIBCD1 tpm_KQ_NTZ: 0.8945 (2×) and 0.4936
  FLI1 tpm_KQ_NTZ: 0.163 and 0.09153 and 0.3476
  FLRT1 tpm_KQ_NTZ: 0.02501 and 0.1658 and 0.1094
  FOXI1 tpm_KQ_NTZ: -0.2315 and -0.3686 and -0.4151
  FOXP3 tpm_KQ_NTZ: -0.3022 and -0.9252 and -0.8607
  FRY tpm_KQ_NTZ: 0.3424 and 1.196 and 0.3898
  FUT3 tpm_KQ_NTZ: 0.2065 and 0.1078 and 0.1213
  FZD4 tpm_KQ_NTZ: -0.8248 and -0.9863 and -1.191
  GBX2 tpm_KQ_NTZ: 0.2922 and 0.1832 and -0.01058
  GCNT3 tpm_KQ_NTZ: 0.5624 and 1.46 and 1.425
  GDPD3 tpm_KQ_NTZ: 0.1549 and 0.8212 and 1.086
  GPR19 tpm_KQ_NTZ: -0.4052 and -1.088 and -0.1444
  H3C1 tpm_KQ_NTZ: -0.4909 and -0.7381 and -0.1713
  HAS3 tpm_KQ_NTZ: -0.7244 and -1.045 and -1.209
  HSD3B1 tpm_KQ_NTZ: 0.4147 and -0.0829 and 0.06266
  HSPB8 tpm_KQ_NTZ: 1.202 and 1.163 and 1.373
  IFITM10 tpm_KQ_NTZ: 0.594 and 0.6249 and 1.26
  IGF2BP1 tpm_KQ_NTZ: -0.6156 and 0.2139 and -0.1353
  IGFBP4 tpm_KQ_NTZ: -0.9714 and -1.052 and -1.107
  IGSF23 tpm_KQ_NTZ: 0.2138 and -0.14 and 0.153
  IL1RN tpm_KQ_NTZ: 0.4172 and 0.5103 and 0.3837
  IL21R tpm_KQ_NTZ: 0.1341 and 0.3531 and -0.6262
  IL32 tpm_KQ_NTZ: 0.1915 and 0.128 and 0.2784
  IL36RN tpm_KQ_NTZ: 0.2015 and -0.02405 and -0.08881
  KDELR2 tpm_KQ_NTZ: 0.386 and 0.3336 and 0.3028
  KIAA0319 tpm_KQ_NTZ: 0.8897 and 0.7646 and 0.5228
  KLK9 tpm_KQ_NTZ: -0.2259 and -0.6416 and -0.6693
  KRT17 tpm_KQ_NTZ: -0.1797 and -0.2377 and -0.2552
  LGALS12 tpm_KQ_NTZ: -0.7737 and -0.7092 and -1.317
  LILRB3 tpm_KQ_NTZ: -0.849 and 0.2071 and -0.3616
  LOC105373989 tpm_KQ_NTZ: 0.1747 and 0.1405 and -0.01628
  LOC107985532 tpm_KQ_NTZ: -0.4716 and -1.399 and -0.5849
  LRRK1 tpm_KQ_NTZ: 0.2201 and 0.2241 and -0.1686
  LTB tpm_KQ_NTZ: 0.298 and 0.1911 and 0.1215
  LY6K tpm_KQ_NTZ: 0.361 and 0.2663 and 0.3215
  MAP2 tpm_KQ_NTZ: 1.038 and 0.7956 and 0.3906
  MCM4 tpm_KQ_NTZ: -0.8715 and -0.9161 and -1.036
  METRNL tpm_KQ_NTZ: -0.141 and -0.421 and -0.3102
  MFSD2A tpm_KQ_NTZ: 0.8546 and 0.3607 and 0.5375
  MMP9 tpm_KQ_NTZ: 0.4129 and 0.2062 and 0.3482
  MNX1 tpm_KQ_NTZ: 0.2275 and -0.9 and 0.1118
  MROH8 tpm_KQ_NTZ: -1.87 and -0.2315 and 0.3664
  MVP tpm_KQ_NTZ: 0.5977 and 0.4827 and 0.3544
  MYBL2 tpm_KQ_NTZ: -0.1727 and -0.165 and -0.155
  NAV1 tpm_KQ_NTZ: 0.9647 (2×) and 0.5494
  NECTIN4 tpm_KQ_NTZ: 1.229 and 1.239 and 1.198
  NKD1 tpm_KQ_NTZ: 0.09084 and 0.3652 and -0.1886
  NLRC5 tpm_KQ_NTZ: 0.9096 and 0.9955 and 0.3927
  NR4A2 tpm_KQ_NTZ: -0.3921 and 0.001744 and -0.3514
  NRK tpm_KQ_NTZ: -0.02829 and -0.09407 and -0.0544
  NT5E tpm_KQ_NTZ: -0.3117 and -0.2802 and -0.3345
  NTF4 tpm_KQ_NTZ: -0.8704 and -0.4013 and -0.4312
  PADI3 tpm_KQ_NTZ: -0.6957 and -0.9817 and -0.9686
  PCDH18 tpm_KQ_NTZ: -1.061 and -0.1951 and -0.6677
  PDGFA tpm_KQ_NTZ: 0.404 and 0.3967 and 0.4405
  PDZK1 tpm_KQ_NTZ: -0.2414 and 0.3327 and -0.5574
  PEG10 tpm_KQ_NTZ: -0.4908 and -0.6617 and -1.075
  PFKFB1 tpm_KQ_NTZ: 0.1063 and -0.5815 and -0.9802
  PGAM4 tpm_KQ_NTZ: -1.18 and 0.2721 and 0.1017
  PHACTR3 tpm_KQ_NTZ: -0.9821 and -1.045 and -0.9733
  PHOSPHO2 tpm_KQ_NTZ: -0.6941 and -0.4899 and -0.4437
  PIANP tpm_KQ_NTZ: -0.9238 and -0.4554 and -0.5206
  PITPNM3 tpm_KQ_NTZ: 0.8488 and 0.3478 and 1.199
  PKIA tpm_KQ_NTZ: -0.2506 and -0.236 and -0.2863
  PRKAR1B tpm_KQ_NTZ: 0.4324 and 0.4514 and 0.7549
  PRKDC tpm_KQ_NTZ: 0.0232 and -0.08402 and -0.5624
  PROS1 tpm_KQ_NTZ: 0.5403 and 0.6849 and 0.6327
  PRR16 tpm_KQ_NTZ: -0.9713 and 0.1931 and -0.1646
  PRR29 tpm_KQ_NTZ: -0.06306 and -0.3085 and -0.2669
  PTPRR tpm_KQ_NTZ: 0.6595 and 1.295 and 0.9528
  RBL1 tpm_KQ_NTZ: -0.1965 and -0.4796 and -0.579
  RLN1 tpm_KQ_NTZ: -0.3286 and -1.073 and -1.143
  RMDN2 tpm_KQ_NTZ: 0.2344 and 0.5874 and -0.2937
  RND1 tpm_KQ_NTZ: 0.2005 and 0.3255 and 0.6944
  S100A6 tpm_KQ_NTZ: -0.1375 and -0.00541 and 0.1164
  SCG2 tpm_KQ_NTZ: 0.5158 and -0.04635 and -1.114
  SDCBP2 tpm_KQ_NTZ: 0.1173 and 0.1996 and 0.2731
  SERINC5 tpm_KQ_NTZ: 0.7977 and 0.7386 and 0.3271
  SERPINA3 tpm_KQ_NTZ: 0.1383 and 0.1648 and 0.1316
  SERPINB4 tpm_KQ_NTZ: -0.3324 and -0.2205 and -0.9332
  SERPIND1 tpm_KQ_NTZ: -1.101 and -0.7105 and -1.316
  SGK1 tpm_KQ_NTZ: -0.7129 and -0.3809 and -0.4182
  SHISA3 tpm_KQ_NTZ: -0.1615 and -0.01424 and -0.03964
  SLC1A1 tpm_KQ_NTZ: 0.007137 and 0.6447 and 0.4297
  SLC26A9 tpm_KQ_NTZ: -0.2744 and 0.2725 and -0.927
  SLC41A2 tpm_KQ_NTZ: 0.4534 and 0.4303 and 0.4488
  SLC44A4 tpm_KQ_NTZ: 0.5521 and 0.8689 and 0.6934
  SLC45A2 tpm_KQ_NTZ: 0.257 and 0.07385 and 0.3908
  SLITRK5 tpm_KQ_NTZ: 0.1465 and 0.3195 and -0.4377
  SMCO4 tpm_KQ_NTZ: 0.1432 and -0.08242 and 0.08549
  SPOCK2 tpm_KQ_NTZ: 0.7174 and 0.4246 and 1.38
  STK32A tpm_KQ_NTZ: -0.2617 and 0.04669 and 0.4294
  SYN3 tpm_KQ_NTZ: 0.4729 and 0.3702 and 0.1862
  TENM4 tpm_KQ_NTZ: 0.2992 and -0.3092 and -0.102
  TIMM8A tpm_KQ_NTZ: -0.8837 and -0.8279 and -0.9653
  TJP3 tpm_KQ_NTZ: 0.01147 and 0.1369 and 0.1215
  TMEM140 tpm_KQ_NTZ: 0.2484 and 0.4158 and -0.0465
  TMEM269 tpm_KQ_NTZ: 0.406 and 0.06998 and -0.4941
  TMOD1 tpm_KQ_NTZ: 1.342 and 1.235 and 0.499
  TMPRSS2 tpm_KQ_NTZ: 0.007165 (2×) and 0.0842
  TNFAIP8L2-SCNM1 tpm_KQ_NTZ: -0.5467 and -1.562 and 0.4492
  TNFRSF11B tpm_KQ_NTZ: -0.9649 and -1.078 and -1.224
  TSPAN18 tpm_KQ_NTZ: 0.09114 and -0.09342 and 0.05473
  TTC9 tpm_KQ_NTZ: 0.2094 and 0.2356 and 0.6409
  TTC30A tpm_KQ_NTZ: -0.04558 and -0.08793 and -0.6072
  TTC30B tpm_KQ_NTZ: -0.2207 and -0.5797 and -0.3178
  UST tpm_KQ_NTZ: 0.2599 and 0.1194 and -0.01732
  WHRN tpm_KQ_NTZ: 0.9053 and 0.8473 and 0.7758
  WNT4 tpm_KQ_NTZ: 0.9814 and 1.222 and 1.387
  WNT9A tpm_KQ_NTZ: 0.12 and -0.05504 and -0.01608
  ZFPM2 tpm_KQ_NTZ: -0.1773 and -0.1147 and -0.2406
  ZNF596 tpm_KQ_NTZ: -1.141 and -0.2632 and -0.6635
[2]
  tpm ABAT: 1.268 and 0.9682 and 0.237
  tpm ADIRF: -0.4477 and -0.5226 and -0.3352
  tpm ANKRD63: 0.1535 and -0.6652 and 0.3857
  tpm ANXA8: 0.9428 and 0.3454 and -1.083
  tpm ANXA8L1: -0.298 and -0.4234 and -0.7464
  tpm ARG2: 1.137 and 1.333 and 1.316
  tpm ATP2A3: 0.8036 (2×) and -0.2131
  tpm C11orf65: -1.057 and -0.2742 and -0.729
  tpm CACNG8: -0.5252 and -0.3048 and -0.9129
  tpm CAPN12: 0.129 and 0.1138 (2×)
  tpm CD14: -1.105 and -0.7008
  tpm CGB5: 0.9167 and 0.2487 and 0.1354
  tpm CHPF2: 1.06 and 0.6508 and 0.6663
  tpm COL4A4: 0.03123 and -0.5371 and -0.2214
  tpm COL4A6: -0.1711 and -0.6593 and -0.6324
  tpm CXCL5: -0.4877 and -0.4195 and -0.4771
  tpm CYP1B1: 0.6593 and 0.4159 and 0.0748
  tpm CYP2E1: 0.3931 and 0.8042 and 0.2474
